This note sets out measurements from US6906061B2, “Pharmaceutical agent containing Rho kinase inhibitor” (Mitsubishi Pharma Corporation, priority 1996, dated 2005).

Structures can show the parent of a compound that is named as a salt.

One may read the melting point as the temperature of the solid-liquid transition. In general, inhibition refers to the share of the control response that was lost under treatment. The term IC50 denotes the midpoint of a concentration-inhibition curve.

For one series, the system named is mouse femoral bone. Nature of the series: Inhibition of bone resorption (in vitro), mouse femoral bone. The settings on record: 144 h, 6 days incubation of ICR mouse femoral bone. How it is done:
Inhibition of Bone Resorption (in vitro)
The determination of the in vitro inhibition of bone resorption using mouse femoral bone followed the method below.
The femoral bone of 3-6 week old male ICR mice was aseptically removed, and bone marrow cavity was washed with F12 medium, containing 10% heat inactivated fetal bovine serum, penicillin G calcium (100 units/ml), kanamycin sulfate (60 μg) and 0.15% sodium hydrogencarbonate (hereinafter the medium is to be referred to as culture solution). After washing the bone marrow cavity and then removing the soft tissue adhered to the bone, the bone was subjected to incubation. The test compound was once dissolved in dimethyl sulfoxide (DMSO) to give a 10 mg/ml solution, which was diluted 1000-fold with the culture solution to give a 10 μg/ml solution. The test compounds were respectively added to the concentration shown in Table 7 and, using this culture solution (1.2 ml), the ICR mouse femoral bone was incubated in a 24 well plate for 6 days under the conditions of 5% CO2 gas, 95% air. After the completion of the incubation, the culture supernatant was recovered, and the amount of calcium suspending in the culture supernatant was quantitatively determined by the chelate method using o-cresolphthalein. The bone resorption inhibitory action of the test compound was calculated by the following formula using the incubation of the femoral bone without addition of the test compound as a control. [formula] This experiment was done with 4 cases in each group. As the control, the same amount of DMSO alone as in the case with the addition of the test compound was used.

The test system of series [1] is BALB/c spleen cells stimulated with C57BL/6 spleen cells. Description: Inhibition of mouse allogenic mixed lymphocyte reaction. To be noted: Mus musculus, Lymphocyte, 96 h; 4 days culture, MTT; read-out: Mouse allogenic MLR inhibitory activity IC50. Format: cell-based. As to the method:
Inhibition of Mouse Allogenic Mixed Lymphocyte Reaction
A mouse allogenic mixed lymphocyte reaction (hereinafter to be referred to as mouse allogenic MLR) was performed by mixed culture (equal ratio) of the spleen cell of BALB/c mice as the reaction cell and the spleen cell of C57BL/6 mice treated with mitomycin C as stimulated cell.
The reaction cells were prepared by the following method. Spleen was removed from 5-6 week old BALB/c mice and treated with RPMI1640 medium (containing kanamycin sulfate (60 μg/ml), penicillin G potassium (100 units/ml), N-2-hydroxyethylpiperazine-N′-2-ethanesulfonate (10 mM), 0.1% sodium hydrogencarbonate and L-glutamin (2 mM)) supplemented with 5% heat inactivated fetal bovine serum (FBS) to give a single cell suspension of the spleen cell. After hemolysis treatment, the suspension was adjusted to10^7 cells/ml with RPMI1640 medium containing 10^−4 M 2-mercaptoethanol and 10% FBS and used as a reaction cell suspension.
The reaction cell suspension (50 μl) prepared by the above method, stimulated cell suspension (50 μl) and the test compound (100 μl) prepared using RPMI1640 medium containing 10% FBS were added to a 96 well plate and incubated at 37° C. under 5% CO2 gas, 95% air for 4 days.
A pigment assay using 3-(4,5-dimethylthiazol-2-yl)-2,5-diphenyltetrazolium bromide (MTT) was applied for the determination of lymphocyte transformation reaction.
After the completion of culture, the supernatant (100 μl) in each well was removed, and 5 mg/ml MTT solution (20 μl) was added to each well, which was followed by incubation at 37° C. for 4 hours. Then, a 0.01 N hydrochloric acid solution (100 μl) containing 10% sodium dodecyl sulfate was added and the mixture was incubated at 37° C. overnight. The resulting purple crystals of formazan was dissolved and absorbance at 550 nm was measured using a microplate absorption meter, which was used as the index of lymphocyte transformation reaction of the mouse allogenic MLR. The inhibition of mouse allogenic MLR was evaluated by calculating the inhibition percentage by the following formula The results are shown in Table 7.

Series [2] relates to hind limb skin blood flow. Description: Peripheral blood flow increasing action in STZ-induced diabetic rats. The class given is in vivo, rat. To be noted: intravenous. How it is done: Peripheral Blood Flow Increasing Action
Streptozotocin (STZ, 65 mg/kg) was intravenously injected to male SD rats (body weight 200-300 g) to prepare diabetic rats. One month later, STZ-induced diabetic rats were anesthetized with pentobarbital sodium and the blood flow in the hind limb skin was measured with laser blood flowmeter (ALF21R, Advance). The test compound was intravenously administered via catheter dwelled in the carotid arteries, and hind limb skin blood flow increasing action was observed. The blood flow increasing action of the test compound was expressed by increase percentage from the blood flow before administration.

Series [3] has as its system normal human umberical vascular endothelial cells. Description: Inhibition of angiogenesis (lumen formation in vascular endothelial cells). The class given is cell-based. To be noted: 18 hours, compared with the control, number rises with inhibition of lumen formation. How it is done:
Inhibition of Angiogenesis
The inhibition of angiogenesis was evaluated by using the inhibition of lumen formation in vascular endothelial cell as an index. To be specific, normal human umberical vascular endothelial cells (KURABO […] LTD.) were suspended in E-GMUV medium at 5.5×10^4 cells/ml and 400 μl therefrom was added on matrigel plate (EHS sarcoma-derived reconstructed basement membrane, Collaborative Biomedical Products). Then, the test compound (1 mM solution, 4 μl) was added and the cells were incubated at 37° C. under 5% CO2 gas for 18 hours. After the completion of the incubation, the number of lumen per predetermined area was counted under a microscope. Inasmuch as the number of lumen increases by the inhibition of lumen formation, the test compound was evaluated by comparison of the number of lumen with the control.

The subject of series [4] is Bovine Aorta Thoracia Rho Kinase. Description: Rho kinase inhibitory action (inhibition of bovine aorta thoracia Rho kinase). Format: biochemical. The settings on record: test compound 10 μM. As to the method: Rho Kinase Inhibitory Action (Inhibition of Bovine Aorta Thoracia Rho Kinase)
The Rho kinase was prepared from bovine aorta of thorax by partial purification as in the following. The artery was minced and homogenized with a 9-fold amount of 50 mM Tris-hydroxymethylaminomethane (Tris) (pH=7.4), 1 mM dithiothreitol, 1 mM EGTA, 1 mM EDTA, 100 μM p-amidinophenylmethylsulfonyl fluoride, 5 μM E-64, 5 μM leupeptine and 5 μM pepstatin A. The homogenate was centrifuged (10,000×g, 30 minutes) to give supernatant. The supernatant was adsorbed onto a hydroxyapatite column. The column was washed with 0.2M phosphate buffer (pH=6.8). The standard product of Rho kinase was eluted with 0.4M phosphate buffer (pH=6.8). The Rho kinase was assayed as follows.
A reaction mixture (total amount 50 μl) containing 50 mM Tris, 1 mM EDTA, 5 mM MgCl2, 50 μg/ml histone, 10 μM GTPγS, 100 μg/ml Rho, 2 μM [^32P]ATP, the Rho kinase (3 μl) prepared in the above and the test compound was reacted at 30° C. for 5 minutes. The reaction was terminated by the addition of 25% trichloroacetic acid (TCA) solution (1 ml) and the mixture was stood at 4° C. for 30 minutes. Then, the mixture was filtered through a membrane filter (HAWP type, Millipore), and the radioactivity of the filter was counted on a liquid scintillation counter. The inhibitory action of the test compound was calculated from the following formula based on the comparison of the radioactivity with the sample without the test compound (control).

Series [5] deals with CEM cells (human T cell type established cell). Description: Inhibition of VLA integrin activation (phorbol ester-induced adhesion of CEM cells to fibronectin). The class given is cell-based. The settings on record: CCRF-CEM, concentration 100 μM, PMA-induced adhesion, read-out: Adhesion induction inhibition (%). As to the method: Inhibition of VLA (Very Late Antigen) Integrin Activation
As the index of the activation by VLA integrin, phorbol ester-induced adhesion of CEM cells (human T cell type established cell) to fibronectin, which is a ligand of VIA integrin, was measured. The inhibitory action on the induced adhesion by the test compound was determined by the following method.
CEM cells were washed with RPMI1640 medium containing 0.5% bovine serum albumin (BSA), 10 mM HEPES, 2 mM L-glutamin, 1 mM sodium pyruvate, 60 μg/ml kanamycin sulfate and 1.5 mg/ml sodium hydrogencarbonate (hereinafter this medium is referred to as culture solution) and suspended in this medium for use in the following experiment. To each well of a 96 well plate coated with human fibronectin were added CEM cells (5×10^4) and the test compound dissolved in the culture solution (final concentration 1-100 μM) to the amount of 100 μl, and the plate was stood at 37° C. for 1 hour. Then, PMA (phorbol 12-myristate 13-acetate, TPA; final concentration 10 ng/ml) and the test compound were added to the amount of 200 μl, and the plate was stood at 37° C. for 30 minutes. Each well was washed twice with the culture solution (200 μL) at 37° C., and the LDH (lactate dehydrogenase) activity of the cells adhered to the plate was determined, whereby the amount of the adhered cell was measured. Based on the results obtained by the above-mentioned method, the inhibitory action of the test compound on the induced adhesion was calculated by the following formula The results are shown in Table 6. Inhibition (%) of adhesion induction=(a−b)/(a−c)×100 • a=number of cells adhered with the addition of PMA • b=number of cells adhered with the addition of test compound and PMA • c=number of cells adhered without stimulation

As for `O=C(Nc1ccnc2[nH]ccc12)C1CCNCC1` (as salt: hydrochloride) (hydrate or solvate) [Compound 193, N-(1H-pyrrolo[2,3-b]pyridin-4-yl)-4-piperidinecarboxamide], the melting point was 273 °C (dec.).

As for `O=C(Nc1ccnc2[nH]ncc12)C1CCNCC1` (as salt: hydrochloride) (hydrate or solvate) [Compound 194, N-(1H-pyrazolo[3,4-b]pyridin-4-yl)-4-piperidinecarboxamide], the melting point was 277 °C (dec.).

With `O=C(Nc1ccnc2c1CCN2)C1CCNCC1` (as salt: hydrochloride) (hydrate or solvate) [Compound 197, N-(2,3-dihydro-1H-pyrrolo[2,3-b]pyridin-4-yl)-4-piperidinecarboxamide], the melting point was 235 °C (dec.).

In the case of `O=C(Nc1ccnc2[nH]ccc12)C1CCN(CCc2ccccc2)CC1` (as salt: hydrochloride) (hydrate or solvate) [Compound 198, N-(1H-pyrrolo[2,3-b]pyridin-4-yl)-1-(2-phenylethyl)-4-piperidinecarboxamide], the melting point is 272 °C (dec.).

Consider `N=C(N)N1CCC(C(=O)Nc2ccnc3[nH]ccc23)CC1` (as salt: hydrochloride) (hydrate or solvate) [Compound 199, N-(1H-pyrrolo[2,3-b]pyridin-4-yl)-1-amidino-4-piperidinecarboxamide], for which the melting point is 246 °C (dec.).

As to `O=C(Nc1ccnc2[nH]ccc12)C1CCN(Cc2ccccc2)CC1` (as salt: hydrochloride) (hydrate or solvate) [Compound 201, N-(1H-pyrrolo[2,3-b]pyridin-4-yl)-1-benzyl-4-piperidinecarboxamide], the melting point was 260 °C (dec.).

Turning to `O=C(Nc1ccnc2[nH]ncc12)C1CCN(CCc2ccccc2)CC1` (as salt: hydrochloride) (hydrate or solvate) [Compound 202, N-(1H-pyrazolo[3,4-b]pyridin-4-yl)-1-(2-phenylethyl)-4-piperidinecarboxamide], the melting point was 259 to 261 °C (dec.).

With `O=C(Nc1ccnc2[nH]ncc12)C1CCN(CCCc2ccccc2)CC1` (as salt: hydrochloride) (hydrate or solvate) [Compound 203, N-(1H-pyrazolo[3,4-b]pyridin-4-yl)-1-(3-phenylpropyl)-4-piperidinecarboxamide], the melting point is 240 to 244 °C (dec.).

With `O=C(Nc1ccnc2[nH]ccc12)C1CCN(CCCc2ccccc2)CC1` (as salt: hydrochloride) [Compound 200, N-(1H-pyrrolo[2,3-b]pyridin-4-yl)-1-(3-phenylpropyl)-4-piperidinecarboxamide], the melting point was 276 °C (dec.).

On to `COCn1ncc2c(NC(=O)C3CCNCC3)ccnc21` (hydrate or solvate) [Compound 196, N-(1-methoxymethyl-1H-pyrazolo[3,4-b]pyridin-4-yl)-4-piperidinecarboxamide], for which the melting point lay within 240 to 241 °C.

Consider `CC(N)[C@H]1CC[C@H](C(=O)Nc2ccnc3[nH]ncc23)CC1` (single isomer, unassigned; (+)) [Compound 112.2HCl, (+)-trans-N-(1H-pyrazolo[3,4-b]pyridin-4-yl)-4-(1-aminoethyl)cyclohexanecarboxamide], for which the inhibition at 100 µM in the series on mouse femoral bone is 75.7%. In series [1], the IC50 turned out to be 4.4 µM.

In the case of `C[C@@H](N)c1ccc(C(=O)Nc2ccnc3[nH]ncc23)cc1` [Compound 166.2HCl.H2O, (R)-(+)-N-(1H-pyrazolo[3,4-b]pyridin-4-yl)-4-(1-aminoethyl)benzamide], the “Increase in skin blood flow ± standard error (%)” value in series [2] (0.3 μg) is on record as 143.2 ± 25.4%; in series [2] (1 μg), 165.9 ± 42.5%.

In the case of `O=S(=O)(c1cccc2cnccc12)N1CCCNCC1` [Compound 204.2HCl, 1-(5-isoquinolinesulfonyl)homopiperazine], the “Number of lumen (10 μM)” value in series [3] worked out at 133%. Further, the “Inhibition (%)” value in series [4] is reported as 93%. In addition, the inhibition at 100 µM in series [5] stood at 82%.
